Results reported in ChEMBL document CHEMBL5346962, “Discovery of Sulanemadlin (ALRN-6924), the First Cell-Permeating, Stabilized α-Helical Peptide in Clinical Development” (J Med Chem, 2023).
Calls of active or inactive are those of the source. No cut-off for these calls is given here.

How the values were obtained:
[1] = Half life in plasma of athymic nu/nu mouse xenografted with human SJSA-1 cells at 25 mg/kg, iv measured for 24 hrs by LC-MS-MS analysis; format: ADME, organism-based
MCF7 [2] = test: Antitumor activity against human MCF7 cells xenografted in athymic nude BALB/c mouse assessed as upregulation of p21 protein level at 20 mg/kg, iv by immunohistochemical analysis; format: functional, organism-based; conditions: time <= 48.0 hrs, TDE = time-dependent effect
[3] = AUC (all) in mouse at 5 mg/kg by LC-MS/MS analysis; format: ADME, organism-based; design: dose 5 mg/kg; conditions: in vivo
[4] = Induction of cell cycle arrest in human CD34+ cells assessed as accumulation at S phase at 10 uM incubated for 24 hrs by flow cytometry (reference value: 27.5 +/- 5.8%); format: toxicity, cell-based; conditions: cd34-positive (myeloid/lymphoid) cell
Mus musculus [5] = test: Protection against topotecan-induced neutropenia in C57BL/6 mouse assessed as increase in neutrophil level at 2.4 mg/kg administered on day 0 to 4 and co-administered 30 mins prior to topotecan on day 1 to 4 followed by topotecan administration on day 5 measured on day 7 by CBC analysis relative to control; format: functional; conditions: time 7 day
Fibroblast [6] = test: Protection against chemotherapy-induced apoptosis in human fibroblast assessed as decrease in caspase-3/7 level preincubated for 16 hrs followed by actinomycin D addition measured after 32 hrs; format: functional, cell-based; conditions: dose 4.6-10 µM, time 48.0 hrs
MCF7 [7] = test: Antitumor activity against human MCF7 cells xenografted in athymic nude BALB/c mouse assessed as increase in cPARP protein level at 20 mg/kg, iv by immunohistochemical analysis; format: functional, organism-based; conditions: time <= 48.0 hrs, TDE = time-dependent effect
Fibroblast [8] = test: Protection against chemotherapy-induced apoptosis in human fibroblast assessed as decrease in caspase-3/7 level preincubated for 16 hrs followed by vinblastine addition measured after 32 hrs; format: functional, cell-based; conditions: dose 4.6-10 µM, time 48.0 hrs
[9] = Plasma protein binding in mouse at 2 to 50 uM; format: ADME, cell-free; conditions: dose 2-50 µM, read-out: PPB (converted)
[10] = Cmax in cynomolgous monkey at 10 mg/kg by LC-MS/MS analysis; format: ADME, organism-based, Macaca fascicularis; design: dose 10 mg/kg; conditions: cynomolgus monkey, in vivo
Fibroblast [11] = test: Protection against chemotherapy-induced apoptosis in human fibroblast assessed as decrease in caspase-3/7 level preincubated for 16 hrs followed by gemcitabine.HCl addition measured after 32 hrs; format: functional, cell-based; conditions: dose 4.6-10 µM, time 48.0 hrs
Fibroblast [12] = test: Protection against chemotherapy-induced apoptosis in human fibroblast assessed as decrease in caspase-3/7 level preincubated for 16 hrs followed by docetaxel trihydrate addition measured after 32 hrs; format: functional, cell-based; conditions: dose 4.6-10 µM, time 48.0 hrs
NCI-H69 = test: Antitumor activity against human NCI-H69 cells xenografted in athymic nu/nu mouse assessed as reduction in tumor volume at 8 mg/kg administered on day 0 to 4 and co-administered 30 mins prior to topotecan on day 1 to 4 followed by topotecan administration on day 5 measured for 60 days; format: functional, organism-based; conditions: time 60.0 day
[13] = Drug uptake in plasma of athymic nu/nu mouse xenografted with human SJSA-1 cells assessed as AUC (0 to 24 hrs) of metabolite ALRN-8714 at 25 mg/kg, iv measured for 24 hrs by LC-MS-MS analysis; format: ADME, organism-based; design: time 24 hrs, dose 25 mg/kg, route iv; conditions: in vivo
Bone marrow cell [14] = test: Upregulation of p21 mRNA level in bone marrow cells of C57BL/6 mouse at 2.4 mg/kg, iv measured for 24 hrs by qRT-PCR analysis; format: functional, organism-based
Bone marrow cell [15] = test: Upregulation of Puma mRNA level in bone marrow cells of C57BL/6 mouse at 10 mg/kg, iv measured for 24 hrs by qRT-PCR analysis; format: functional, organism-based
[16] = Drug uptake in tumor of athymic nu/nu mouse xenografted with human SJSA-1 cells assessed as half life of metabolite ALRN-8714 at 25 mg/kg, iv measured for 24 hrs by LC-MS-MS analysis; format: ADME, organism-based, Neoplasm; conditions: in vivo
[17] = AUC (0 to 24 hrs) in plasma of athymic nu/nu mouse xenografted with human SJSA-1 cells at 25 mg/kg, iv measured for 24 hrs by LC-MS-MS analysis; format: ADME, organism-based; design: time 24 hrs, dose 25 mg/kg, route iv; conditions: in vivo
[18] = AUC (all) in rat at 10 mg/kg by LC-MS/MS analysis; format: ADME, organism-based; design: dose 10 mg/kg; conditions: in vivo
[19] = Plasma protein binding in human assessed as unbound fraction upto 150 uM; format: ADME, cell-free
Fibroblast [20] = test: Protection against chemotherapy-induced apoptosis in human fibroblast assessed as decrease in caspase-3/7 level preincubated for 16 hrs followed by paclitaxel addition measured after 32 hrs; format: functional, cell-based; conditions: dose 4.6-10 µM, time 48.0 hrs
[21] = Half life in mouse at 5 mg/kg by LC-MS/MS analysis; format: ADME, organism-based; conditions: in vivo
Mus musculus [22] = test: Protection against topotecan-induced epithelium hypertrophy in gastrointestinal tract of C57BL/6 mouse at 2.4 mg/kg administered on day 0 to 4 and co-administered 30 mins prior to topotecan on day 1 to 4 followed by topotecan administration on day 5 measured on day 9 by H&E staining based analysis; format: functional, organism-based; conditions: time 9.0 day
[23] = AUC (all) in cynomolgous monkey at 10 mg/kg by LC-MS/MS analysis; format: ADME, organism-based, Macaca fascicularis; design: dose 10 mg/kg; conditions: cynomolgus monkey, in vivo
[24] = Cmax in rat at 5 mg/kg by LC-MS/MS analysis; format: ADME, organism-based; design: dose 5 mg/kg; conditions: in vivo
CTG-0449 = test: Antitumor activity against patient-derived human CTG-0449 cells xenografted in athymic nu/nu mouse model of AML assessed as tumor growth inhibition administered intravenously twice a week measured for 20 days; format: functional, cell-based; conditions: dose 10-20 mg/kg, route iv, time 20.0 day
[25] = Plasma protein binding in dog at 2 to 50 uM; format: ADME, cell-free, Canis lupus familiaris; conditions: dose 2-50 µM, read-out: PPB (converted)
[26] = Half life in cynomolgous monkey at 10 mg/kg by LC-MS/MS analysis; format: ADME, organism-based, Macaca fascicularis; conditions: cynomolgus monkey, in vivo
SJSA-1 = test: Antitumor activity against human SJSA-1 cells xenografted in athymic nu/nu mouse […] assessed as tumor growth inhibition administered intravenously twice a week measured for 15 days; format: functional, cell-based; conditions: dose 5-20 mg/kg, route iv, time 15.0 day
[27] = Drug excretion in bile-duct cannulated rat assessed as ALRN-8714 metabolite elimination at 10 mg/kg, iv measured for 8 hrs by LC-MS/MS analysis; format: ADME, organism-based; conditions: in vivo
BT-474 [28] = test: […] chemotherapy-induced apoptosis in human BT-474 cells assessed as decrease in caspase-3/7 level at 4.6 to 10 uM preincubated for 16 hrs followed by docetaxel addition measured after 32 hrs; format: functional, cell-based; conditions: dose 4.6-10 µM, time 48.0 hrs
[29] = system: CD34-positive (myeloid/lymphoid) cell; test: Protection against chemotherapy-induced cell cycle arrest in human CD34+ cells assessed as DNA damage by measuring gamma-H2AX level at 1 uM preincubated for 24 hrs followed by topotecan addition measured after 24 hrs; format: functional, cell-based; conditions: time 48.0 hrs
[30] = Cmax in mouse at 5 mg/kg by LC-MS/MS analysis; format: ADME, organism-based; design: dose 5 mg/kg; conditions: in vivo
MCF7 [31] = test: Antitumor activity against human MCF7 cells xenografted in athymic nude BALB/c mouse assessed as tumor regression at 20 mg/kg, iv measured upto 48 hrs by immunohistochemical analysis; format: functional, organism-based
BT-474 [32] = test: […] chemotherapy-induced apoptosis in human BT-474 cells assessed as decrease in caspase-3/7 level at 4.6 to 10 uM preincubated for 16 hrs followed by doxorubicin addition measured after 32 hrs; format: functional, cell-based; conditions: dose 4.6-10 µM, time 48.0 hrs
[33] = Solubility of the compound in aqueous solution at pH 7.5 incubated for 1 hr by spectrophotometric analysis; format: physicochemical
[34] = Cmax in rat at 10 mg/kg by LC-MS/MS analysis; format: ADME, organism-based; design: dose 10 mg/kg; conditions: in vivo
[35] = Plasma protein binding in mouse at 250 uM; format: ADME, cell-free; conditions: read-out: PPB (converted)

CC(=O)N[C@@H](CC(C)C)C(=O)N[C@H](C(=O)N[C@@H](Cc1ccccc1)C(=O)N[C@]1(C)CCCCCC/C=C/CCC[C@@](C)(C(=O)N[C@@H](C)C(=O)N[C@@H](C)C(=O)N[C@@H](C)C(=O)N[C@@H](C)C(=O)N[C@@H](C)C(=O)N[C@H](C)C(N)=O)NC(=O)[C@H](CC(C)C)NC(=O)[C@H](CCC(N)=O)NC(=O)[C@H](C)NC(=O)[C@H](Cc2c[nH]c3ccccc23)NC(=O)[C@H](Cc2ccc(O)cc2)NC(=O)[C@H](CCC(=O)O)NC1=O)[C@@H](C)O
half-life [1]: 168 min | Activity (MCF7 [2]): Tde | AUC [3]: 450 µg·h/mL | Activity [4]: 0.22% | Activity (Mus musculus [5]): 84% | Activity (Fibroblast [6]): Dose-Dependent Effect | Activity (MCF7 [7]): Tde | Activity (Fibroblast [8]): Dose-Dependent Effect | fraction unbound at up to 50 µM [9]: 0.08 | Cmax [10]: 236 µg/mL | Activity (Fibroblast [11]): Dose-Dependent Effect | Activity (Fibroblast [12]): Dose-Dependent Effect | Activity (NCI-H69): Active | AUC [13]: 85 µg·h/g | Activity (Bone marrow cell [14]): Active | Activity (Bone marrow cell [15]): Active | t1/2 [16]: 9 h | AUC [17]: 3180 µg·h/mL | AUC [18]: 562 µg·h/mL | fraction unbound at up to 150 µM [19]: 0.03 | Activity (Fibroblast [20]): Dose-Dependent Effect | half-life [21]: 132 min | Activity (Mus musculus [22]): Active | AUC [23]: 1350 µg·h/mL | Cmax [24]: 95.9 µg/mL | Activity (CTG-0449): Dose-Dependent Effect | fraction unbound at up to 50 µM [25]: 0.08 | half-life [26]: 330 min | Activity (SJSA-1): Dose-Dependent Effect | Drug excretion [27]: Active | Activity (BT-474 [28]): inactive | Activity [29]: inactive | Cmax [30]: 67.8 µg/mL | Activity (MCF7 [31]): inactive | Activity (BT-474 [32]): inactive | solubility at 1 h [33]: ≤ 75 µg/mL | Cmax [34]: 186 µg/mL | fraction unbound at 250 µM [35]: 0.02
